The results in this text go back to patent US10450318B2, “CXCR4 receptor antagonists” (BRISTOL-MYERS SQUIBB COMPANY, priority 2015, dated 2019).

Molecules are shown by their SMILES.

T1 sequence (P61073 whole entry): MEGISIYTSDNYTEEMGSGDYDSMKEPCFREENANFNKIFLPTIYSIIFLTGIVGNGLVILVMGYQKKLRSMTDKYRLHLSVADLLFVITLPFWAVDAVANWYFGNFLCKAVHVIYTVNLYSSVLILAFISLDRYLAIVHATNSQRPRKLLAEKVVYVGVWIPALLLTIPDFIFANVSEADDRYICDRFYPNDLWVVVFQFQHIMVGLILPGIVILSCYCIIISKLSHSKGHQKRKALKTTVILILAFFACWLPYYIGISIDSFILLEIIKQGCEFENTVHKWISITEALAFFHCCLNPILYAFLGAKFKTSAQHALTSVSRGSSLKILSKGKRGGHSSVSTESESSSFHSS

The assay concerns the target T1, CXCR4 receptors (Homo sapiens, UniProt P61073).
T1 construct: expressing endogenous CXCR4 receptors; endogenous in cells; host or cells: CCRF-CEM (human T lymphoblast cells)
Description: CXCR4-CEM calcium flux assay, antagonist mode (inhibition of SDF-1α-induced calcium flux). Format: cell-based. The note with it: inhibition of calcium flux induced by 4 nM SDF-1α in CCRF-CEM cells. On the procedure:
Exemplary compounds of the invention were tested for their ability to induce or inhibit calcium flux in CCRF-CEM cells. […] CXCR4-CEM Calcium Flux Assays. […] The cells were then equilibrated to room temperature for 30 minutes before assay. […] The serially diluted compounds were diluted to working concentrations with the same assay buffer to 0.5% DMSO. […] Activity of the compounds to induce calcium flux was monitored by FDSS in the “agonist mode” for 90 sec. For “antagonist mode” assessment, the cells are subsequently incubated for 25 min at room temperature. SDF-1α (R&D System Cat#350-NS/CF) was then added at a final concentration of 4 nM to stimulate the cells. Inhibition of SDF-1α-induced calcium flux was monitored by FDSS6000 for 90 sec. […] After correcting for background, EC50 values were determined. […] Inhibition data for the test compound over a range of concentrations was plotted as percentage inhibition of the test compound as compared to an internal control compound.
For orientation: IC50 means the point on the concentration scale where inhibition reaches its midpoint. Take `CN(Cc1cn2c(N3CCN(CC(=O)O)CC3)nccc2n1)[C@H]1CCCc2cccnc21` [Example 50, 2-{4-[2-({methyl[(S)-5,6,7,8-tetrahydroquinolin-8-yl]amino}methyl)imidazo[1,2-c]pyrimidin-5-yl]piperazin-1-yl}acetic acid]: the 50% inhibitory concentration (IC50) was 92 nM.

Consider `COc1nc(N2CCN(C)CC2)n2cc(CN(C)[C@H]3CCCc4cccnc43)nc2c1CO` [Example 106, (S)-(7-Methoxy-2-((methyl(5,6,7,8-tetrahydroquinolin-8-yl)amino)methyl)-5-(4-methylpiperazin-1-yl)imidazo[1,2-c]pyrimidin-8-yl)methanol], for which the IC50 was determined as 370 nM.

`C[C@@H]1CN(c2nccc3nc(CN(C)[C@H]4CCCc5cccnc54)cn23)C[C@H](C)N1` [Example 73, (S)—N-((5-((3S,5R)-3,5-Dimethylpiperazin-1-yl)imidazo[1,2-c]pyrimidin-2-yl)methyl)-N-methyl-5,6,7,8-tetrahydroquinolin-8-amine]: the IC50 came to 120 nM.

Regarding `CN(Cc1cn2c(N3CCN4CCC[C@H]4C3)nccc2n1)[C@H]1CCCc2cccnc21` [Example 76, (S)-N-((5-((S)-hexahydropyrrolo[1,2-a]pyrazin-2(1H)-yl)imidazo[1,2-c]pyrimidin-2-yl)methyl)-N-methyl-5,6,7,8-tetrahydroquinolin-8-amine], the IC50 is 6.4 nM.

For `CN(Cc1cn2c(N3CCN(S(=O)(=O)c4ccccc4)CC3)nccc2n1)[C@H]1CCCc2cccnc21` [Example 63, (S)-N-({5-[4-(benzenesulfonyl)piperazin-1-yl]imidazo[1,2-c]pyrimidin-2-yl}methyl)-N-methyl-5,6,7,8-tetrahydroquinolin-8-amine], the IC50 stood at 16700 nM.

Turning to `CC(C)N1CCN(c2nccc3nc(CN(C)[C@H]4CCCc5cccnc54)cn23)CC1` [Example 20, (S)-N-methyl-N-({5-[4-(propan-2-yl)piperazin-1-yl]imidazo[1,2-c]pyrimidin-2-yl}methyl)-5,6,7,8-tetrahydroquinolin-8-amine], the half-inhibitory concentration (IC50) amounted to 9.6 nM.

`CN(Cc1cn2c(N3CCN(CC(c4ccccc4)c4ccccc4)CC3)nccc2n1)[C@H]1CCCc2cccnc21` [Example 39, (S)-N-({5-[4-(2,2-diphenylethyl)piperazin-1-yl]imidazo[1,2-c]pyrimidin-2-yl}methyl)-N-methyl-5,6,7,8-tetrahydroquinolin-8-amine]: the IC50 was 63 nM.

With `CN(Cc1cn2c(N3CCNC[C@H]3CO)nccc2n1)[C@H]1CCCc2cccnc21` [Example 77, ((S)-1-(2-((methyl((S)-5,6,7,8-tetrahydroquinolin-8-yl)amino)methyl)imidazo[1,2-c]pyrimidin-5-yl)piperazin-2-yl)methanol], the IC50 was found to be 250 nM.

With `CN(Cc1cn2c(N3CCN(CC4CC4)CC3)nccc2n1)[C@H]1CCCc2cccnc21` [Example 21, (8S)-N-({5-[4-(cyclopropylmethyl)piperazin-1-yl]imidazo[1,2-c]pyrimidin-2-yl}methyl)-N-methyl-5,6,7,8-tetrahydroquinolin-8-amine], the IC50 was found to be 17 nM.

Turning to `CN(C)c1ccc(CN2CCN(c3nccc4nc(CN(C)[C@H]5CCCc6cccnc65)cn34)CC2)cc1` [Example 60, (8S)-N-{[5-(4-{[4-(dimethylamino)phenyl]methyl}piperazin-1-yl)imidazo[1,2-c]pyrimidin-2-yl]methyl}-N-methyl-5,6,7,8-tetrahydroquinolin-8-amine], the IC50 was 7.6 nM.

Consider `CN(Cc1cn2c(N3CCN(Cc4cccn4C)CC3)nccc2n1)[C@H]1CCCc2cccnc21` [Example 56, (S)-N-methyl-N-[(5-{4-[(1-methyl-1H-pyrrol-2-yl)methyl]piperazin-1-yl}imidazo[1,2-c]pyrimidin-2-yl)methyl]-5,6,7,8-tetrahydroquinolin-8-amine], for which the IC50 stood at 4.6 nM.

Consider `COC(=O)N1CCN(c2nccc3nc(CN(C)[C@H]4CCCc5cccnc54)cn23)CC1` [Example 13, (S)-Methyl 4-(2-((methyl(5,6,7,8-tetrahydroquinolin-8-yl)amino)methyl)imidazo[1,2-c]pyrimidin-5-yl)piperazine-1-carboxylate], for which the IC50 was determined as 5670 nM.

Turning to `CN(Cc1cn2c(N3CCN(CCN)CC3)nccc2n1)[C@H]1CCCc2cccnc21` [Example 16, (S)—N-((5-(4-(2-Aminoethyl)piperazin-1-yl)imidazo[1,2-c]pyrimidin-2-yl)methyl)-N-methyl-5,6,7,8-tetrahydroquinolin-8-amine], the IC50 is 540 nM.

As to `CN(Cc1cn2c(N3CCN(CC(C)(C)C)CC3)nccc2n1)[C@H]1CCCc2cccnc21` [Example 33, (S)-N-({5-[4-(2,2-dimethylpropyl)piperazin-1-yl]imidazo[1,2-c]pyrimidin-2-yl}methyl)-N-methyl-5,6,7,8-tetrahydroquinolin-8-amine], the IC50 is 1000 nM.

In the case of `CN1CCN(c2nccc3nc(CN(C)[C@H]4CCCc5cccnc54)cn23)C[C@@H]1CO` [Example 98, ((R)-1-methyl-4-(2-((methyl((S)-5,6,7,8-tetrahydroquinolin-8-yl)amino)methyl)imidazo[1,2-c]pyrimidin-5-yl)piperazin-2-yl)methanol], the IC50 was 1.9 nM.

`CN(Cc1cn2c(N3CCC(N)C3)nccc2n1)[C@H]1CCCc2cccnc21` (stereo partly drawn) [Example 74, (8S)-N-((5-(3-aminopyrrolidin-1-yl)imidazo[1,2-c]pyrimidin-2-yl)methyl)-N-methyl-5,6,7,8-tetrahydroquinolin-8-amine]: the IC50 amounted to 79 nM.

Consider `CN(Cc1nc2ccnc(N3CCNCC3)n2c1CO)[C@H]1CCCc2cccnc21` [Example 6, (S)-(2-((Methyl(5,6,7,8-tetrahydroquinolin-8-yl)amino)methyl)-5-(piperazin-1-yl)imidazo[1,2-c]pyrimidin-3-yl)methanol], for which the IC50 turned out to be 3.8 nM.

Turning to `CN(Cc1cn2c(N3CCNCC3)nc(Cl)cc2n1)[C@H]1CCCc2cccnc21` [Example 72, (S)—N-((7-Chloro-5-(piperazin-1-yl)imidazo[1,2-c]pyrimidin-2-yl)methyl)-N-methyl-5,6,7,8-tetrahydroquinolin-8-amine], the half-inhibitory concentration (IC50) stood at 330 nM.

For the compound `CN(Cc1cn2c(N3CCN4CCOCC4C3)nccc2n1)[C@H]1CCCc2cccnc21` (single isomer, unassigned) [Example 91], the IC50 is > 30000 nM.

Turning to `CN(Cc1cn2c(N3CCN(S(=O)(=O)c4cccc(Cl)c4)CC3)nccc2n1)[C@H]1CCCc2cccnc21` [Example 42, (S)-N-({5-[4-(3-chlorobenzenesulfonyl)piperazin-1-yl]imidazo[1,2-c]pyrimidin-2-yl}methyl)-N-methyl-5,6,7,8-tetrahydroquinolin-8-amine], the IC50 turned out to be 22700 nM.

Take `CC(CCN1CCN(c2nccc3nc(CN(C)[C@H]4CCCc5cccnc54)cn23)CC1)c1ccccc1` (stereo partly drawn) [Example 65, (S)-N-methyl-N-({5-[4-(3-phenylbutyl)piperazin-1-yl]imidazo[1,2-c]pyrimidin-2-yl}methyl)-5,6,7,8-tetrahydroquinolin-8-amine]: the 50% inhibitory concentration (IC50) worked out at 16 nM.

For `CN(Cc1cn2c(N3CCN(Cc4ccccc4O)CC3)nccc2n1)[C@H]1CCCc2cccnc21` [Example 59, 2-({4-[2-({methyl[(S)-5,6,7,8-tetrahydroquinolin-8-yl]amino}methyl)imidazo[1,2-c]pyrimidin-5-yl]piperazin-1-yl}methyl)phenol], the IC50 turned out to be 25 nM.

As for `CN(Cc1cn2c(N3CCN4CCCCC4C3)nccc2n1)[C@H]1CCCc2cccnc21` (stereo partly drawn) [Example 90, (8S)-N-methyl-N-((5-(octahydro-2H-pyrido[1,2-a]pyrazin-2-yl)imidazo[1,2-c]pyrimidin-2-yl)methyl)-5,6,7,8-tetrahydroquinolin-8-amine], the IC50 was 2.5 nM.

`CCNC(=O)N1CCN(c2nccc3nc(CN(C)[C@H]4CCCc5cccnc54)cn23)CC1` [Example 14, (S)—N-ethyl-4-(2-((methyl(5,6,7,8-tetrahydroquinolin-8-yl)amino)methyl)imidazo[1,2-c]pyrimidin-5-yl)piperazine-1-carboxamide]: the half-inhibitory concentration (IC50) turned out to be 1230 nM.

`CN(Cc1cn2c(N3CCN(Cc4ccccc4)CC3)nccc2n1)[C@H]1CCCc2cccnc21` [Example 37, (S)-N-{[5-(4-benzylpiperazin-1-yl)imidazo[1,2-c]pyrimidin-2-yl]methyl}-N-methyl-5,6,7,8-tetrahydroquinolin-8-amine]: the IC50 is 23 nM.

For the compound `CN1CCC(N2CCN(c3nccc4nc(CN(C)[C@H]5CCCc6cccnc65)cn34)CC2)CC1` [Example 38, (S)-N-methyl-N-({5-[4-(1-methylpiperidin-4-yl)piperazin-1-yl]imidazo[1,2-c]pyrimidin-2-yl}methyl)-5,6,7,8-tetrahydroquinolin-8-amine], the IC50 was found to be 420 nM.

As to `CN(Cc1cn2c(N3CCN(S(=O)(=O)c4cccs4)CC3)nccc2n1)[C@H]1CCCc2cccnc21` [Example 62, (S)-N-methyl-N-({5-[4-(thiophene-2-sulfonyl)piperazin-1-yl]imidazo[1,2-c]pyrimidin-2-yl}methyl)-5,6,7,8-tetrahydroquinolin-8-amine], the IC50 is 19600 nM.

Take `CN(Cc1cn2c(N3CCN(C(=O)OC(C)(C)C)CC3)nccc2n1)[C@H]1CCCc2cccnc21` [Example 3, (S)-tert-Butyl 4-(2-((methyl(5,6,7,8-tetrahydroquinolin-8-yl)amino)methyl)imidazo[1,2-c]pyrimidin-5-yl)piperazine-1-carboxylate]: the half-maximal inhibitory concentration (IC50) is > 30000 nM.

Turning to `CN(Cc1cn2c(N3CCNC(c4ccccc4)C3)nccc2n1)[C@H]1CCCc2cccnc21` (single isomer, unassigned) [Example 79], the IC50 turned out to be 56 nM.
